In PubChem BioAssay (NCI):
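Test compounds were applied to cells in 96-well plates for 48 hours at 5 doses. GI50: concentration for 50% inhibition of growth. TGI marks complete inhibition of growth.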

Key:
Test in all cases: NCI anticancer screen, dose series, 48 h
[1] = tested on: 786-0 renal
[2] = tested on: A498 renal
[3] = tested on: A549 NSCLC
[4] = tested on: ACHN renal
[5] = tested on: BT-549 breast
[6] = tested on: CAKI-1 renal
[7] = tested on: CCRF-CEM leukemia
[8] = tested on: COLO 205 colon
[9] = tested on: DU-145 prostate
[10] = tested on: EKVX NSCLC
[11] = tested on: HCC-2998 colon
[12] = tested on: HCT-116 colon
[13] = tested on: HCT-15 colon
[14] = tested on: HL-60(TB) leukemia
[15] = tested on: HOP-62 NSCLC
[16] = tested on: HOP-92 NSCLC
[17] = tested on: HS 578T breast
[18] = tested on: HT29 colon
[19] = tested on: IGROV1 ovarian
[20] = tested on: K-562 leukemia
[21] = tested on: KM12 colon
[22] = tested on: LOX IMVI melanoma
[23] = tested on: M14 melanoma
[24] = tested on: MALME-3M melanoma
[25] = tested on: MCF7 breast
[26] = tested on: MDA-MB-231 breast
[27] = tested on: MDA-MB-435
[28] = tested on: MDA-MB-468 breast
[29] = tested on: MOLT-4 leukemia
[30] = tested on: NCI-H226 lung
[31] = tested on: NCI-H23 lung
[32] = tested on: NCI-H460 lung
[33] = tested on: NCI-H522 lung
[34] = tested on: NCI/ADR-RES ovarian
[35] = tested on: OVCAR-3 ovarian
[36] = tested on: OVCAR-4 ovarian
[37] = tested on: OVCAR-5 ovarian
[38] = tested on: OVCAR-8 ovarian
[39] = tested on: PC-3 prostate
[40] = tested on: RPMI-8226 leukemia
[41] = tested on: RXF 393 renal
[42] = tested on: SF-268 CNS
[43] = tested on: SF-295 CNS
[44] = tested on: SF-539 CNS
[45] = tested on: SK-MEL-2 melanoma
[46] = tested on: SK-MEL-28 melanoma
[47] = tested on: SK-MEL-5 melanoma
[48] = tested on: SK-OV-3 ovarian
[49] = tested on: SN12C renal
[50] = tested on: SNB-19 CNS
[51] = tested on: SNB-75 CNS
[52] = tested on: SR leukemia
[53] = tested on: SW-620 colon
[54] = tested on: T-47D breast
[55] = tested on: TK-10 renal
[56] = tested on: U251 CNS
[57] = tested on: UACC-257 melanoma
[58] = tested on: UACC-62 melanoma
[59] = tested on: UO-31 renal

COc1cc(OC)c2c3nc4cc(C)c(C)cc4nc3n(CCN(C)C)c2c1
GI50 [1]: 14.2 µM | TGI [1]: 29.2 µM | GI50 [2]: > 100 µM | TGI [2]: > 100 µM | GI50 [3]: 4.98 µM | TGI [3]: 22.9 µM | GI50 [4]: 11.1 µM | TGI [4]: 23.1 µM | GI50 [5]: 14.2 µM | TGI [5]: 28.5 µM | GI50 [6]: 15.9 µM | TGI [6]: 29.8 µM | GI50 [7]: 22.4 µM | TGI [7]: > 100 µM | GI50 [8]: 5.51 µM | TGI [8]: 20 µM | GI50 [9]: 14.5 µM | TGI [9]: 28.2 µM | GI50 [10]: 14.7 µM | TGI [10]: 28.3 µM | GI50 [11]: 12.7 µM | TGI [11]: 26.1 µM | GI50 [12]: 13.9 µM | TGI [12]: 30.3 µM | GI50 [13]: 11.4 µM | TGI [13]: 24.7 µM | GI50 [14]: 16.3 µM | TGI [14]: 36.4 µM | GI50 [15]: 5.75 µM | TGI [15]: 22.2 µM | GI50 [16]: 11.5 µM | TGI [16]: 31.1 µM | GI50 [17]: 15.7 µM | TGI [17]: 39.5 µM | GI50 [18]: 4.88 µM | TGI [18]: 31.4 µM | GI50 [19]: 12 µM | TGI [19]: 26.1 µM | GI50 [20]: 3.1 µM | TGI [20]: 25.3 µM | GI50 [21]: 17.5 µM | TGI [21]: 34.2 µM | GI50 [22]: 8.99 µM | TGI [22]: 22.7 µM | GI50 [23]: 13.5 µM | TGI [23]: 30.6 µM | GI50 [24]: 14.1 µM | TGI [24]: 28.1 µM | GI50 [25]: 4.75 µM | TGI [25]: 19.2 µM | GI50 [26]: 11.6 µM | TGI [26]: 24.2 µM | GI50 [27]: 14.5 µM | TGI [27]: 28.2 µM | GI50 [28]: 12.8 µM | TGI [28]: 26.4 µM | GI50 [29]: 10.6 µM | TGI [29]: 41.7 µM | GI50 [30]: 14.4 µM | TGI [30]: 32.3 µM | GI50 [31]: 13.1 µM | TGI [31]: 27.8 µM | GI50 [32]: 12.1 µM | TGI [32]: 26.5 µM | GI50 [33]: 13.5 µM | TGI [33]: 33.6 µM | GI50 [34]: 10 µM | TGI [34]: 27.7 µM | GI50 [35]: 16.1 µM | TGI [35]: 30.6 µM | GI50 [36]: 14.9 µM | TGI [36]: 33.6 µM | GI50 [37]: 15.1 µM | TGI [37]: 29.1 µM | GI50 [38]: 2.4 µM | TGI [38]: 6.84 µM | GI50 [39]: 15.5 µM | TGI [39]: 61.4 µM | GI50 [40]: 19.9 µM | TGI [40]: > 100 µM | GI50 [41]: 11.8 µM | TGI [41]: 25.1 µM | GI50 [42]: 14.4 µM | TGI [42]: 32.1 µM | GI50 [43]: 13.1 µM | TGI [43]: 26.2 µM | GI50 [44]: 15 µM | TGI [44]: 28.3 µM | GI50 [45]: 16.7 µM | TGI [45]: 35.4 µM | GI50 [46]: 15.6 µM | TGI [46]: 29.3 µM | GI50 [47]: 16.1 µM | TGI [47]: 29.8 µM | GI50 [48]: 16.7 µM | TGI [48]: 32.1 µM | GI50 [49]: 11.5 µM | TGI [49]: 24.6 µM | GI50 [50]: 12.9 µM | TGI [50]: 25.7 µM | GI50 [51]: 12.1 µM | TGI [51]: 25.5 µM | GI50 [52]: 4.29 µM | TGI [52]: 50.7 µM | GI50 [53]: 4.65 µM | TGI [53]: 18.7 µM | GI50 [54]: 12.9 µM | TGI [54]: 32.1 µM | GI50 [55]: 16.5 µM | TGI [55]: 31.9 µM | GI50 [56]: 12.8 µM | TGI [56]: 28 µM | GI50 [57]: 14.9 µM | TGI [57]: 31.9 µM | GI50 [58]: 15.2 µM | TGI [58]: 29.1 µM | GI50 [59]: 6.21 µM | TGI [59]: 20.2 µM

CCOc1ccccc1[C@H]1C(C(=O)c2ccc(Cl)cc2)C2(N[C@@H]1c1ccccc1)C(=O)Nc1ccc(Br)cc12 (stereo partly specified)
GI50 [1]: 5.76 µM | TGI [1]: 17.6 µM | GI50 [2]: 4.45 µM | TGI [2]: 13.7 µM | GI50 [3]: 6.58 µM | TGI [3]: > 34.5 µM | GI50 [4]: 7.25 µM | TGI [4]: > 34.5 µM | GI50 [5]: 5.3 µM | TGI [5]: 10.8 µM | GI50 [6]: 2.92 µM | TGI [6]: > 34.5 µM | GI50 [7]: 22.8 µM | TGI [7]: > 34.5 µM | GI50 [8]: 5.35 µM | TGI [8]: 10.6 µM | GI50 [9]: 8.88 µM | TGI [9]: 32.2 µM | GI50 [10]: 7.9 µM | TGI [10]: > 34.5 µM | GI50 [11]: 4.88 µM | TGI [11]: 13 µM | GI50 [12]: 4.76 µM | TGI [12]: 11 µM | GI50 [13]: 7.51 µM | TGI [13]: 33.3 µM | GI50 [14]: 4.77 µM | TGI [14]: 16.3 µM | GI50 [15]: 5.62 µM | TGI [15]: 13.5 µM | GI50 [16]: 5.42 µM | TGI [16]: 14.6 µM | GI50 [17]: 4.77 µM | TGI [17]: 15.2 µM | GI50 [18]: 4.46 µM | TGI [18]: 10.1 µM | GI50 [19]: 4.88 µM | TGI [19]: 21.2 µM | GI50 [20]: 7.41 µM | TGI [20]: > 34.5 µM | GI50 [21]: 6 µM | TGI [21]: 20.4 µM | GI50 [22]: 4.17 µM | TGI [22]: 8.44 µM | GI50 [23]: 5.55 µM | TGI [23]: 14.5 µM | GI50 [24]: 5.7 µM | TGI [24]: 12.1 µM | GI50 [25]: 6.45 µM | TGI [25]: 29.9 µM | GI50 [26]: 4.04 µM | TGI [26]: 8.87 µM | GI50 [27]: 5.55 µM | TGI [27]: 12.7 µM | GI50 [28]: 3.46 µM | TGI [28]: 12.6 µM | GI50 [29]: 4.46 µM | TGI [29]: 19.8 µM | GI50 [30]: 4.32 µM | TGI [30]: 10.6 µM | GI50 [31]: 5.43 µM | TGI [31]: 13.8 µM | GI50 [32]: 5.11 µM | TGI [32]: 10.8 µM | GI50 [33]: 4.41 µM | TGI [33]: 13.4 µM | GI50 [34]: 5.25 µM | TGI [34]: 13 µM | GI50 [35]: 5.07 µM | TGI [35]: 12.8 µM | GI50 [36]: 8.09 µM | TGI [36]: > 34.5 µM | GI50 [37]: 7 µM | TGI [37]: 24.5 µM | GI50 [38]: 6.06 µM | TGI [38]: 19.3 µM | GI50 [39]: 3.6 µM | TGI [39]: > 34.5 µM | GI50 [40]: 6.69 µM | TGI [40]: > 34.5 µM | GI50 [41]: 3.8 µM | TGI [41]: 9.29 µM | GI50 [42]: 6.2 µM | TGI [42]: 24.4 µM | GI50 [43]: 5.79 µM | TGI [43]: 21.6 µM | GI50 [44]: 7.93 µM | TGI [44]: 20.2 µM | GI50 [45]: 5.59 µM | TGI [45]: 12.4 µM | GI50 [46]: 6.28 µM | TGI [46]: 15.7 µM | GI50 [47]: 5.41 µM | TGI [47]: 10.8 µM | GI50 [48]: 9.66 µM | TGI [48]: > 34.5 µM | GI50 [49]: 4.46 µM | TGI [49]: 9.03 µM | GI50 [50]: 9.14 µM | TGI [50]: > 34.5 µM | GI50 [51]: 4.2 µM | TGI [51]: 25 µM | GI50 [52]: 5.17 µM | TGI [52]: 16.3 µM | GI50 [53]: 6.55 µM | TGI [53]: 19 µM | GI50 [54]: 4.05 µM | TGI [54]: > 34.5 µM | GI50 [55]: 8.22 µM | TGI [55]: 28.5 µM | GI50 [56]: 5.72 µM | TGI [56]: 13.9 µM | GI50 [57]: 5.86 µM | TGI [57]: 17.6 µM | GI50 [58]: 3.45 µM | TGI [58]: 7.98 µM | GI50 [59]: 4.99 µM | TGI [59]: 20.8 µM
